From patent publication US20240218022A1, “ANTI-VISTA MACROCYCLIC PEPTIDES AND COMPOSITIONS” (BRISTOL-MYERS SQUIBB COMPANY, priority 2022, published 2024)
pIC50: −log10 of the molar value.

These compounds were tested against T1, mouse VISTA (mVISTA) (Mus musculus, UniProt Q9D659) (assay: Cell-Based Binding High-Content Assay For mVISTA (HC CBA mVISTA)). Conditions: cell-based binding high-content assay; read-out: HC CBA miPrISTA IC50.
T1 construct: expressed in transfected cells; host or cells: Human embryonic kidney 293T cells
T1 sequence (Q9D659 33-308): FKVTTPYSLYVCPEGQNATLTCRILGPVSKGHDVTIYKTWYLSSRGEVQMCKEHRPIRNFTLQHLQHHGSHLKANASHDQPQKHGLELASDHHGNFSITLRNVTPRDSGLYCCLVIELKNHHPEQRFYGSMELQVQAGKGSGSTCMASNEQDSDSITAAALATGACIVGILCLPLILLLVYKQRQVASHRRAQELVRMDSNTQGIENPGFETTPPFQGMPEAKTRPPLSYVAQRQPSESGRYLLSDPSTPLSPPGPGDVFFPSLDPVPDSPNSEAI
Experimental: Cell-Based Binding High-Content Assay For mVISTA
Human embryonic kidney 293T cells (293T) expressing mouse VISTA (mVISTA) were used for the assessment of compounds competing with the binding of a biotinylated peptide. Cryopreserved cells were thawed in a 37° C. water bath and incubated overnight at a 37° C./5% CO2 incubator in assay culture media DMEM (Life Technologies Inc. Cat. No. 11995-126) supplemented with 10% (v/v) FBS (Sigma, Cat. No. F4135), 1× Penicillin/Streptomycin (Life Technologies Inc. Cat. No. 15140-122). Cells were harvested, washed and resuspended in DMEM media […]. To test compounds under “no-wash” condition, cells were seeded into PDL-coated 384 well plates (Corning, Cat. No. 356663) at 4,000 cells/20 μL. After incubating the cell plates for two hours at a 37° C./5% CO2 incubator, 125 nL of test compound was added using an ECHO. Alternatively, to test compounds under “wash” condition, test compounds were added first, followed by addition of 20 μL cells at a density of 4000 cells/well. After incubation for an hour, the media was removed, followed by addition of 20 μL of fresh media ( ), and plates were then incubated for another hour. To plates either under “no wash” or “wash” condition, the biotinylated peptide was added to a final concentration of 2 nM, and plates were incubated at room temperature for 30 minutes. Fifteen (15) μL of Alexa 647 conjugated Streptavidin (Life Tech, Cat. No. S21374), suspended at 2 μg/ml in media, was added to the assay plate and incubate for 30 minutes. Cells were fixed by adding 15 μL of formaldehyde at a final concentration of 8% (w/v) (Sigma Cat. No. 252549), 20 μg/mL Hoechst (Thermo Scientific Cat. No. 62249) in PBS for 10 minutes at room temperature. The plates were washed 3 times in dPBS, sealed, and read on a CellInsight NXT High Content Screening Platform IC903000 (Thermo Scientific). The 50% effective concentration (IC50) was calculated using the four-parameter logistic formula y=A+((B−A)/(1+((C/x)^D))), where A and B denote minimal and maximal % inhibition, respectively, C is the EC50, D is hill slope and x represent compound concentration.

| pIC50 | Structure (SMILES) |
| --- | --- |
| 7.60 | CCCCCCN1CC(=O)N[C@@H](Cc2ccc(O)cc2)C(=O)N[C@@H](CCCC)C(=O)N[C@@H](CC(N)=O)C(=O)N[C@@H](CCCNC(=N)N)C(=O)N[C@@H](CC(C)C)C(=O)N[C@@H](CCCCC)C(=O)N2CCC[C@H]2C(=O)N[C@@H](C(C)C)C(=O)N[C@@H](CC(=O)O)C(=O)N[C@H](C(=O)NCCOCCOCC(=O)N[C@@H](CC(=O)O)C(=O)NCCOCCOCC(=O)NCCCCCCCCCCC(=O)O)CSCC(=O)N[C@@H](Cc2cccc(C)c2)C(=O)N[C@@H](Cc2c[nH]c3ccccc23)C(=O)N[C@@H](CC(=O)O)C1=O (stereo in doubt) [compound 2286] |
| 8.07 | CCCCCCN1CC(=O)N[C@@H](Cc2ccc(O)cc2)C(=O)N[C@@H](CCCC)C(=O)N[C@@H](CC(N)=O)C(=O)N[C@@H](CCCNC(=N)N)C(=O)N[C@@H](CC(C)C)C(=O)N[C@@H](CCCCC)C(=O)N2CCC[C@H]2C(=O)N[C@@H](C(C)C)C(=O)N[C@@H](CO)C(=O)N[C@H](C(=O)NCCOCCOCC(=O)N[C@@H](CC(=O)O)C(=O)NCCOCCOCC(=O)NCCCCCCCCCCC(=O)O)CSCC(=O)N[C@@H](Cc2ccc3ccccc3c2)C(=O)N[C@@H](Cc2ccc(O)cc2)C(=O)N[C@@H](CC(=O)O)C1=O (stereo in doubt) [compound 2288] |
| 7.76 | CCCCCCN1CC(=O)N[C@@H](Cc2ccc(O)cc2)C(=O)N[C@@H](CC(C)C)C(=O)N[C@@H](CC(N)=O)C(=O)N[C@@H](CCCNC(=N)N)C(=O)N[C@@H](CC(C)C)C(=O)N[C@@H](CCCCC)C(=O)N2CCC[C@H]2C(=O)N[C@@H](C(C)C)C(=O)N[C@@H](C(C)C)C(=O)N[C@H](C(=O)NCCOCCOCC(=O)N[C@@H](CC(=O)O)C(=O)NCCOCCOCC(=O)NCCCCCCCCCCC(=O)O)CSCC(=O)N[C@@H](Cc2ccccc2)C(=O)N[C@@H](Cc2ccc(O)cc2)C(=O)N[C@@H](CC(=O)O)C1=O (stereo in doubt) [compound 2291] |
| 7.48 | CCCCCCN1CC(=O)N[C@@H](Cc2ccc(O)cc2)C(=O)N[C@@H](CCCC)C(=O)N[C@@H](CC(=O)O)C(=O)N[C@@H](CCCNC(=N)N)C(=O)N[C@@H](CC(C)C)C(=O)N[C@@H](CCCCC)C(=O)N2CCC[C@H]2C(=O)N[C@@H](C(C)C)C(=O)N[C@@H](CC(N)=O)C(=O)N[C@H](C(=O)NCCOCCOCC(=O)N[C@@H](CC(=O)O)C(=O)NCCOCCOCC(=O)NCCCCCCCCCCC(=O)O)CSCC(=O)N[C@@H](Cc2ccccc2)C(=O)N[C@@H](Cc2ccc(O)cc2)C(=O)N[C@@H](CC(=O)O)C1=O (stereo in doubt) [compound 2295] |
| 7.64 | CCCCCCN1CC(=O)N[C@@H](Cc2ccc(O)cc2)C(=O)N[C@@H](CCCC)C(=O)N[C@@H](CC(N)=O)C(=O)N[C@@H](CCCNC(N)=O)C(=O)N[C@@H](CC(C)C)C(=O)N[C@@H](CCCCC)C(=O)N2CCC[C@H]2C(=O)N[C@@H](C(C)C)C(=O)N[C@@H](CO)C(=O)N[C@H](C(=O)NCCOCCOCC(=O)N[C@@H](CC(=O)O)C(=O)NCCOCCOCC(=O)NCCCCCCCCCCC(=O)O)CSCC(=O)N[C@@H](Cc2ccc3ccccc3c2)C(=O)N[C@@H](Cc2ccc(O)cc2)C(=O)N[C@@H](CC(=O)O)C1=O (stereo in doubt) [compound 2305] |
| 7.75 | CCCCCCN1CC(=O)N[C@@H](Cc2ccc(O)cc2)C(=O)N[C@@H](CCCC)C(=O)NCC(=O)N[C@@H](CCCNC(N)=O)C(=O)N[C@@H](CC(C)C)C(=O)N[C@@H](CCCCC)C(=O)N2CCC[C@H]2C(=O)N[C@@H](C(C)C)C(=O)N[C@@H](CC(=O)O)C(=O)N[C@H](C(=O)NCCOCCOCC(=O)N[C@@H](CC(=O)O)C(=O)NCCOCCOCC(=O)NCCCCCCCCCCC(=O)O)CSCC(=O)N[C@@H](Cc2cccc(C)c2)C(=O)N[C@@H](Cc2ccc(O)cc2)C(=O)N[C@@H](CC(=O)O)C1=O (stereo in doubt) [compound 2309] |
| 7.46 | CCCCCCN1CC(=O)N[C@@H](Cc2ccc(O)cc2)C(=O)N[C@@H](CCCC)C(=O)N[C@@H](CC(N)=O)C(=O)N[C@@H](CCCNC(=N)N)C(=O)N(C)[C@@H](CC(C)C)C(=O)N[C@@H](CCCCC)C(=O)N2CCC[C@H]2C(=O)N[C@@H](C(C)C)C(=O)N[C@@H](CO)C(=O)N[C@H](C(=O)NCCOCCOCC(=O)N[C@@H](CC(=O)O)C(=O)NCCOCCOCC(=O)NCCCCCCCCCCC(=O)O)CSCC(=O)N[C@@H](Cc2ccccc2)C(=O)N[C@@H](Cc2c[nH]c3ccccc23)C(=O)N[C@@H](CC(=O)O)C1=O (stereo in doubt) [compound 2314] |

Further lines, the compound ahead of its results:

| Structure (SMILES) | pIC50 |
| --- | --- |
| CCCCCCN1CC(=O)N[C@@H](Cc2ccc(O)cc2)C(=O)N[C@@H](C(C)C)C(=O)NCC(=O)N[C@@H](CCCNC(=N)N)C(=O)N[C@@H](CC(C)C)C(=O)N[C@@H](CCCCC)C(=O)N2CCC[C@H]2C(=O)N[C@@H](C(C)C)C(=O)N[C@@H](CC(=O)O)C(=O)N[C@H](C(=O)NCCOCCOCC(=O)N[C@@H](CC(=O)O)C(=O)NCCOCCOCC(=O)NCCCCCCCCCCC(=O)O)CSCC(=O)N[C@@H](Cc2ccc3ccccc3c2)C(=O)N[C@@H](Cc2ccc(O)cc2)C(=O)N[C@@H](CC(=O)O)C1=O (stereo in doubt) [compound 2287] | 7.67 |
| CCCCCCN1CC(=O)N[C@@H](Cc2ccc(O)cc2)C(=O)N[C@@H](CC(C)C)C(=O)N[C@@H](CC(N)=O)C(=O)N[C@@H](CCCNC(=N)N)C(=O)N[C@@H](CC(C)C)C(=O)N[C@@H](CCCCC)C(=O)N2CCC[C@H]2C(=O)N[C@@H](C(C)C)C(=O)N[C@@H](C(C)C)C(=O)N[C@H](C(=O)NCCOCCOCC(=O)N[C@@H](CC(=O)O)C(=O)NCCOCCOCC(=O)NCCCCCCCCCCC(=O)O)CSCC(=O)N[C@@H](Cc2ccccc2)C(=O)N[C@@H](Cc2cccc(C)c2)C(=O)N[C@@H](CC(=O)O)C1=O (stereo in doubt) [compound 2289] | 7.80 |
| CCCCCCN1CC(=O)N[C@@H](Cc2ccc(O)cc2)C(=O)N[C@@H](CCCC)C(=O)N[C@@H](CC(N)=O)C(=O)N[C@@H](CCCNC(=N)N)C(=O)N(C)[C@@H](CCCC)C(=O)N[C@@H](CCCCC)C(=O)N2CCC[C@H]2C(=O)N[C@@H](C(C)C)C(=O)N[C@@H](CC(=O)O)C(=O)N[C@H](C(=O)NCCOCCOCC(=O)N[C@@H](CC(=O)O)C(=O)NCCOCCOCC(=O)NCCCCCCCCCCC(=O)O)CSCC(=O)N[C@@H](Cc2ccc3ccccc3c2)C(=O)N[C@@H](Cc2c[nH]c3ccccc23)C(=O)N[C@@H](CC(=O)O)C1=O (stereo in doubt) [compound 2290] | 7.41 |
| CCCCCCN1CC(=O)N[C@@H](Cc2ccc(O)cc2)C(=O)N[C@@H](CCCC)C(=O)N[C@@H](CC(N)=O)C(=O)N[C@@H](CCCNC(N)=O)C(=O)N2Cc3ccccc3C[C@H]2C(=O)N[C@@H](CCCCC)C(=O)N2CCC[C@H]2C(=O)N[C@@H](C(C)C)C(=O)N[C@@H](CO)C(=O)N[C@H](C(=O)NCCOCCOCC(=O)N[C@@H](CC(=O)O)C(=O)NCCOCCOCC(=O)NCCCCCCCCCCC(=O)O)CSCC(=O)N[C@@H](Cc2ccccc2)C(=O)N[C@@H](Cc2c[nH]c3ccccc23)C(=O)N[C@@H](CC(=O)O)C1=O (stereo in doubt) [compound 2311] | 7.55 |
| CCCCCCN1CC(=O)N[C@@H](Cc2ccc(O)cc2)C(=O)N[C@@H](CCCC)C(=O)N[C@@H](CC(N)=O)C(=O)N[C@@H](CCCNC(N)=O)C(=O)N(C)[C@@H](CCCC)C(=O)N[C@@H](CCCCC)C(=O)N2CCC[C@H]2C(=O)N[C@@H](C(C)C)C(=O)N[C@@H](CO)C(=O)N[C@H](C(=O)NCCOCCOCC(=O)N[C@@H](CC(=O)O)C(=O)NCCOCCOCC(=O)NCCCCCCCCCCC(=O)O)CSCC(=O)N[C@@H](Cc2ccccc2)C(=O)N[C@@H](Cc2c[nH]c3ccccc23)C(=O)N[C@@H](CC(=O)O)C1=O (stereo in doubt) [compound 2317] | 7.74 |
| CCCCCCN1CC(=O)N[C@@H](Cc2ccc(O)cc2)C(=O)N[C@@H](CCCC)C(=O)N[C@@H](CC(N)=O)C(=O)N[C@@H](CCCNC(=N)N)C(=O)N(C)[C@@H](CCCC)C(=O)N[C@@H](CCCCC)C(=O)N2CCC[C@H]2C(=O)N[C@@H](C(C)C)C(=O)N[C@@H](CO)C(=O)N[C@H](C(=O)NCCOCCOCC(=O)N[C@@H](CC(=O)O)C(=O)NCCOCCOCC(=O)NCCCCCCCCCCC(=O)O)CSCC(=O)N[C@@H](Cc2ccccc2)C(=O)N[C@@H](Cc2c[nH]c3ccccc23)C(=O)N[C@@H](CC(=O)O)C1=O (stereo in doubt) [compound 2318] | 7.67 |
